These results are taken from patent US9709555B2, “Compound for generating second harmonic of light, dye composition for generating second harmonic of light, and cell examination method” (KEIO UNIVERSITY, priority 2013, dated 2017).

Each structure is given as a SMILES string. Values after ≈ are worked out from the molar mass of the structure shown. “Also recorded” adds a separate entry of the source.

Data set [1] is described as follows: Evaluation of solubility of dyes. The class given is physicochemical. The note with it: for Dissolving in DMSO: DMSO added to a dye concentration of about 100 mM; for Solubility (μM) / solubility: solubility into a buffer, DMSO solution diluted 1000 times with extracellular fluid; for solubility: extracellular fluid (Artificial Cerebrospinal Fluid), aqueous buffer, kinetic from dmso stock; for Solubility into a buffer: result in words. The method, then: Furthermore, using anionic, neutral, zwitter, and dicationic dyes shown in Table 1, solubility into a buffer, toxicity, and presence or absence of SHG and TPF signals when applied to cultured cells (CHO cells) were evaluated, respectively. Herein, the dyes #1 to 5 are dyes for generating a second harmonic of light outside of the range of the present invention, and the dyes #6 and 7 are dyes for generating a second harmonic of light within the range of the present invention.
DMSO (dimethyl sulfoxide) was added to the synthesized dye group (dyes #1 to #7) in Table 2 to have a concentration of a dye at about 100 mM and dissolving was attempted.
(§1) DMSO solutions of the dyes #1 to #3, #4, #5 and Ap3 were diluted 1000 times using an extracellular fluid (Artificial Cerebrospinal Fluid), and when all were assumed to be dissolved, the final concentration was set at about 100 μM.

Data set [2] has as its system CHO cells. In words: Evaluation of SHG and TPF signals of dyes applied to CHO cells. The note with it: about 100 μM dye, pulse laser at 1,000 nm, qualitative comparison. It counts as cell-based, Chinese Hamster. On the procedure: as §1
A CHO (Chinese Hamster Ovary) cell cultured on a cover glass was used as an observation subject, immersed into the above described dye solution to try dyeing a cell membrane, and directly observed under a microscope within several minutes.
A multiphoton laser microscope system (FV1000MPE manufactured by Olympus Corporation) on which an ultrashort femtosecond laser (MaitaiHP manufactured by Newport) was mounted was used for the observation, and SHG and two-photon fluorescence (Two-Photon Fluorescence: TPF) after irradiation by a pulse laser at 1,000 nm were observed under the same detection condition for each dye. Three images were obtained by changing fields of view per each dye, and signal intensities were qualitatively compared among the dyes. FIGS. 4 to 6 show images of Comparative Examples 4 to 6, and FIGS. 7 and 8 show images of Examples 2 and 3, respectively.

The subject of data set [3] is CHO cells. Description: Evaluation of cytotoxicity of dyes (cell forms before and after dyeing). It counts as cell-based, Chinese Hamster. The note with it: cell form before and after dyeing, differential interference figure. On the procedure: For evaluation of cytotoxicity due to a dye, cell forms before and after dyeing were confirmed from a differential interference figure using near-infrared light. Cytotoxicity was evaluated by particularly focusing on two points that 1) a cell having an extended structure due to interaction with an extracellular matrix loses its adhesion to thus separate from a cover glass and is rounded, and 2) a cell membrane having a smooth form becomes an inhomogeneous and uneven form, when the physiological condition of the cell deteriorates.

Data set [4] relates to cultured human normal astrocyte. Description: SHG and TPF imaging of dye introduced into cultured human normal astrocyte. The note with it: 100 μM dye in buffer, introduced by pipette, 1,000 nm exciting light; for SHG signal: SHG at 500 nm. It counts as cell-based. The method, then: A buffer containing 100 μM of FM4-64 was prepared and introduced into a cultured human normal astrocyte using a pipette. The dye that was introduced into the cell spreads throughout the entire cell over time.
For the measurement, a multiphoton microscope capable of SHG imaging and TPF imaging obtained by incorporating a tunable femtosecond mode synchronous infrared laser into a commercially available confocal laser scanning microscope was used as the light source. By irradiating with 1,000 nm of exciting light, an SHG signal light having a wavelength of 500 nm is generated from the dye in the same direction as the direction in which an infrared pulse laser travels. The signal can be detected in a photomultiplier tube provided on the laser light traveling direction side. A back scattered component of the TPF signal light is also observed by irradiating with the same exciting light.
SHG and TPF imaging was carried out in the same manner as Comparative Example 1 except for using Ap1 to Ap3 as dyes, and these cases were Comparative Examples 2 and 3 and Example 1, respectively.

A further data set relates to nerve cell. The note with it: dye introduced from the cell exterior, femtosecond laser; cited from earlier work.

Regarding `CCCCCCN(CCCCCC)c1ccc(/N=N/c2ccc(C=O)cc2)cc1` [#4], in data set [1], the “Dissolving in DMSO” value is on record as “no dissolving” and the “Solubility (μM)” value is recorded as “Insoluble”. Also, in the data set on CHO cells [2], the SHG signal result is “not obtained at all” and the TPF signal entry is reported as “not obtained at all”.

As usually defined, the solubility is the concentration that dissolves in the medium under given conditions. Higher therefore signals much dissolved substance. `CCCCN(CCCC)c1ccc(/N=N/c2ccc(S(=O)(=O)O)cc2)cc1` [#1]: in data set [1], the “Dissolving in DMSO” value is on record as “easily dissolved” and the solubility is approximately 100 µM (≈ 39 µg/mL). For the same molecule, in the data set with CHO cells [2], the SHG signal result is recorded as “Good” and the TPF signal entry was “None”. In addition, the Toxicity result with CHO cells [3] is recorded as “High”.

Regarding `CCN(CC)c1ccc(/C=C/C=C/C=C/c2cc[n+](CCC[N+](CC)(CC)CC)cc2)cc1` [FM4-64, reference compound], in data set [4], the TPF signal entry was “observed” and the SHG signal entry is “observed”. For the same molecule, in the data set with nerve cell, the “Fluorescent (TPF) signal” value is “detected” and the SHG signal entry is “very strong”.

Turning to `CCCCCCN(CCCCCC)c1ccc(/N=N/c2ccc(S(=O)(=O)O)cc2)cc1` [#2], in data set [1], the “Dissolving in DMSO” value is “easily dissolved” and the solubility was approximately 100 µM (≈ 44.6 µg/mL). In the data set on CHO cells [2], the SHG signal entry is “Good” and the TPF signal entry is reported as “None”. Also, in the data set on CHO cells [3], the Toxicity entry is recorded as “High”.

As for `CCCCCCN(CCCCCC)c1ccc(/N=N/c2cc[n+](CCCS(=O)(=O)[O-])cc2)cc1` [#6, (E)-3-(4-((4-(dihexylamino)phenyl)diazenyl)pyridin-1-ium-1-yl)propane-1-sulfonate], in data set [1], the “Dissolving in DMSO” value is reported as “poor solubility”, the solubility was less than 100 µM and the “Solubility into a buffer” value is given as “no problem”. In the data set on CHO cells [2], the SHG signal result was “observed and Fine”; the TPF signal result was “not observed and None”. Moreover, the Toxicity result in the data set with CHO cells [3] was “no problem; also recorded: Little”.

On to `CCCCCCCCN(CCCCCCCC)c1ccc(/N=N/c2cc[n+](CCCS(=O)(=O)[O-])cc2)cc1` [#7, (E)-3-(4-((4-(dioctylamino)phenyl)diazenyl)pyridin-1-ium-1-yl)propane-1-sulfonate], for which, in data set [1], the “Dissolving in DMSO” value is “poor solubility”, the solubility is less than 100 µM and the “Solubility into a buffer” value is on record as “no problem”. Further, in the data set on CHO cells [2], the SHG signal result is “observed and Fine”; the TPF signal entry was “not observed and None”. In addition, the Toxicity result with CHO cells [3] was “no problem; also recorded: Little”.

Consider `CCCCCCN(CCCCCC)c1ccc(/N=N/c2cc[n+](CCC[N+](CC)(CC)CC)cc2)cc1` [Ap3], for which, in data set [4], the TPF signal entry is recorded as “not observed” and the SHG signal entry is recorded as “can be observed”. Besides, in data set [1], the concentration in solution (solubility) was 100 µM and the “Solubility into a buffer” value was “no problem”. In addition, in the data set on CHO cells [2], the SHG signal entry is “observed and Good”; the TPF signal entry is “not observed and None”. Further, the Toxicity entry in the data set on CHO cells [3] is “no problem; also recorded: Little”.

Take `CCCCCCN(CCCCCC)c1ccc(/N=N/c2ccc(C=C(C#N)C#N)cc2)cc1` [#5]: in data set [1], the “Dissolving in DMSO” value is given as “no dissolving” and the “Solubility (μM)” value is listed as “Insoluble”. Moreover, in the data set with CHO cells [2], the SHG signal result is on record as “not obtained at all” and the TPF signal entry is given as “not obtained at all”.

Turning to `CCCCCCCCN(CCCCCCCC)c1ccc(/N=N/c2ccc(S(=O)(=O)O)cc2)cc1` [#3], in data set [1], the “Dissolving in DMSO” value is “easily dissolved” and the solubility is approximately 100 µM (≈ 50.2 µg/mL). Moreover, in the data set on CHO cells [2], the SHG signal result was “Good” and the TPF signal result was “None”. Further, the Toxicity result with CHO cells [3] was “Some”.
